Experimental data taken from patent US12318393B2, “Modulators of orphan nuclear receptors for NASH and other metabolic disorders” (Emory University, priority 2018, dated 2025).

Assays:
[1] = test system: high-fat-fed C57BL/6 mice; assay: High-fat-diet C57BL/6 mice, Compound 1 7.5 mg/kg with antagomiR-control or antagomiR-122; format: in vivo
Description: C57BL/6 mice were fed a 50% high fat diet (HFD) for four weeks. The control cohort received three hydrodynamic tail vein injections of a 5 μg antagomiR-control and six i.p injections of saline over three weeks. A second cohort was hydrodynamic tail vein injected with 5 μg antagomiR-122 (the reverse complement that inhibits activity of miR-122) three times and i.p injections of saline six times over three weeks. A third cohort was injected i.p. with Compound 1 (7.5 mg/kg) twice a week plus antagomiR-control once a week over the course of 3 weeks. The final cohort was injected i.p. with Compound 1 (7.5 mg/kg) twice a week plus antagomiR-122 injections once a week over the course of 3 weeks.
High Fat diet fed mice. C57BL/6 male mice were fed for 8 weeks a 50% high fat diet (Envigo, DIETTD150235). All mice were kept in a pathogen-free facility, under a 12 h light/dark cycle. Research on mice was approved by the Hebrew University Institutional Animal Care and Ethics Committee.
Compound 1 and AntagomiR injections to mice. C57BL/6 male mice, 7-8 weeks old, or Sgp130FC, 9-month-old male mice, were injected i.p. with 7.5 mg/kg Compound 1 dissolved in saline and 3% DMSO. Saline was injected as control. Mice were hydrodynamic tail vain injected with antagomiR-122 or antagomiR-control (negative control) (5 μg/mouse in 1.5 ml saline). Mice were sacrificed according to the legend of the figure describing the experimental results and the livers, white adipose and skeletal muscle tissues were frozen in liquid nitrogen or in OCT embedded frozen blocks, for further RNA and histologic analysis. AntagomiRs were obtained from Sigma Aldrich, see Table 3.
Triglycerides and β-hydroxybutyrate quantification. To determine the liver and muscle lipid content, muscle and liver tissues (40-80 mg) were homogenized in 0.5 ml of chloroform: Tris solution (v/v, 1:1), the homogenate was transferred to 1 ml of chloroform: methanol solution (v/v, 2:1) centrifuged at 3000 rpm for 10 min. The organic phase was mixed with 5% Triton X100 in chloroform, dried and re-dissolved in water. After lipid extraction, TG concentration in samples was measured with Triglyceride Quantification Kit (BioVision), according to the manufactures instructions. β-hydroxybutyrate was determined utilizing commercial colorimetric kits (BioVision) directly from plasma samples.
In an effort to determine whether the mechanism of action of miR-122 and Compound 1 are aligned at the same pathway, an experiment was designed in which both molecules, together and each separately, were administered. In this study, mice were fed with a 50% HFD and therapy was initiated 4 weeks after the animals were already on a diet, to establish NASH prior to treatment. Therapies (antagomiRs given once a week, due to a prolonged half time, and RS twice weekly, due to a plasma t/2 of 2.7 hrs) were initiated after 4 weeks and given for 3 weeks. The mice were weighed from week 3 and therapies initiated a week later. […] The liver was further analyzed to assess lipotoxicity. […] A surrogate marker for energy expenditure, β-hydroxybutyrate, was also measured. A reduction in energy expenditure is associated with reduced miR-122, and energy expenditure increased upon treating with Compound 1.
Male C57BL/6J mice, 7 to 8 weeks old, were housed randomly in standard cages and were fed a HFD, or atherogenic diet (consisting 1% Chol and 0.5% cholic acid, see also Table 3). All mice had free access to water during the experimental period. During the feeding period body weight was monitored every 3 days. In the HFD experiment, after 4 or 6 weeks, the resultant obese mice were treated with antagomiR-122 ([…] once a week for 3 weeks), or i.p. injected with Compound 1 (RORα agonist, 7.5 mg/kg twice a week for 3 weeks; or 15 mg/kg 3 times a week for 3 weeks). The obese control (HFD) group was administered only saline with DMSO and antagomiR-control. […]

[2] = test system: C57BL/6 mice fed with HFD; assay: Multi-parameter metabolic assessment (metabolic cages) in HFD-fed C57BL/6 mice; format: in vivo; details: 15 mg/kg 3 times a week, after 2 weeks, 24 hr period, vs saline
Description: Metabolic and activity profiles of the mice were measured, by using the Promethion High-Definition Behavioral Phenotyping System (Sable Instruments, Inc., Las Vegas, NV, USA), which is a multi-parameter assessment incorporating sub-systems for open-circuit indirect calorimetry, feeding, water intake, activity, running wheel and body mass measurements in a conventional live-in home cage that minimizes stress. Data acquisition and instrument control were performed using the MetaScreen software version 2.2.18.0, and the obtained raw data were processed using ExpeData version 1.8.4 using an analysis script detailing all aspects of data transformation. […] Respiratory gases were measured by using the GA-3 gas analyzer (Sable Systems Inc., Las Vegas, NV, USA) using a pull-mode, negative-pressure system. Air flow was measured and controlled by the FR-8 (Sable Systems Inc., Las Vegas, NV, USA), with a set flow rate of 2000 mL/min. Water vapor was continuously measured and its dilution effect on 02 and CO2 were mathematically compensated. Effective mass was calculated by ANCOVA analysis. Respiratory quotient (RQ) was calculated as the ratio of VCO2/VO2. Total energy expenditure (TEE) was calculated as VO2×(3.815+1.232×RQ), normalized to effective body mass, and expressed as kcal/h/kgeff.Mass. […]

O=C1Nc2cc(C(=O)N3CCC(Cc4ccccc4)CC3)ccc2Nc2ccccc21 [Compound 1]
body weight, co-administration with antagomir-122 ([1]; 7.5 mg/kg i.p. twice a week plus antagomiR-122 once a week, 3 weeks): did not decrease
body weight at the end of the experiment compared to the control group ([1]; 7.5 mg/kg i.p. twice a week plus antagomiR-control, 3 weeks): statistically lower
secretion of miR-122 (plasma) ([1]; 7.5 mg/kg i.p. twice a week, 3 weeks): enhanced
TG content in the muscle ([1]; 50% HFD, treatment for 3 weeks): decreased
energy expenditure (surrogate marker β-hydroxybutyrate) ([1]; 50% HFD, treatment for 3 weeks): increased
hepatic lipid droplets and TG content ([1]; 50% HFD, treatment for 3 weeks): reduced
fat oxidation [2]: increased
total energy expenditure (TEE) [2]: increased
